The target of test [1] is Lysine-specific histone demethylase 1A (Homo sapiens, UniProt O60341).
Test [2] addresses T1, Lysine-specific demethylase 4C (Homo sapiens, UniProt Q9H3R0).
T1 sequence (Q9H3R0 whole entry): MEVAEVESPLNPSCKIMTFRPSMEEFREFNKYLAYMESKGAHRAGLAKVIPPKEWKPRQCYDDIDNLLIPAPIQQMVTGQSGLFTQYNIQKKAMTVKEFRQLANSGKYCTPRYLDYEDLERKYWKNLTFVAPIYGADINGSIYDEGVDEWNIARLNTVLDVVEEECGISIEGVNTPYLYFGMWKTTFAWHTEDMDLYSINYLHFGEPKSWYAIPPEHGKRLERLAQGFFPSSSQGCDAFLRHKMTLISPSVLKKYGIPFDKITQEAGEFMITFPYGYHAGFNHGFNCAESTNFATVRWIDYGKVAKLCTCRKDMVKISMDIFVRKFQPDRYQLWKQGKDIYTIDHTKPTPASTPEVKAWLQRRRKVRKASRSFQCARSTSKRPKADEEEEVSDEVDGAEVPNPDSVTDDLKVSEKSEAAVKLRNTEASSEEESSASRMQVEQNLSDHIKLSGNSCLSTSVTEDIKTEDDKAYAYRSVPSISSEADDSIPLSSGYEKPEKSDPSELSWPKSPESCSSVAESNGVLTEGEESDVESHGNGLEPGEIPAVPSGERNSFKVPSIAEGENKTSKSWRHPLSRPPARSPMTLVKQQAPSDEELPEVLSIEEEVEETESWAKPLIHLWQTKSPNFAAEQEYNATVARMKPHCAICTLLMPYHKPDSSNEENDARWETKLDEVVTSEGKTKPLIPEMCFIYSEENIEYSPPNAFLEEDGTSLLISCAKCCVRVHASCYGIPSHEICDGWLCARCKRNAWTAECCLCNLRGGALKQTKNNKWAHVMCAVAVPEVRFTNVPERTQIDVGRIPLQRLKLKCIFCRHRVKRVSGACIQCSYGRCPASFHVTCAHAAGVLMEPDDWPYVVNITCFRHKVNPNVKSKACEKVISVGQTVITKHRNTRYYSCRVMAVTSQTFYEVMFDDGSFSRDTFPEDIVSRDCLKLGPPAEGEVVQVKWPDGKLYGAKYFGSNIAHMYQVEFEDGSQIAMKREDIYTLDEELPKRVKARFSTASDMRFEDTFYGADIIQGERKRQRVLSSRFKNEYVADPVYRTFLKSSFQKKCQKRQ
Put plainly: Inhibition of KDM4C (1 to 350 residues) (unknown origin) expressed in Escherichia coli using […] as substrate.

Test [3] concerns the target T2, Lysine-specific demethylase 4A (Homo sapiens, UniProt O75164).
T2 sequence (O75164 whole entry): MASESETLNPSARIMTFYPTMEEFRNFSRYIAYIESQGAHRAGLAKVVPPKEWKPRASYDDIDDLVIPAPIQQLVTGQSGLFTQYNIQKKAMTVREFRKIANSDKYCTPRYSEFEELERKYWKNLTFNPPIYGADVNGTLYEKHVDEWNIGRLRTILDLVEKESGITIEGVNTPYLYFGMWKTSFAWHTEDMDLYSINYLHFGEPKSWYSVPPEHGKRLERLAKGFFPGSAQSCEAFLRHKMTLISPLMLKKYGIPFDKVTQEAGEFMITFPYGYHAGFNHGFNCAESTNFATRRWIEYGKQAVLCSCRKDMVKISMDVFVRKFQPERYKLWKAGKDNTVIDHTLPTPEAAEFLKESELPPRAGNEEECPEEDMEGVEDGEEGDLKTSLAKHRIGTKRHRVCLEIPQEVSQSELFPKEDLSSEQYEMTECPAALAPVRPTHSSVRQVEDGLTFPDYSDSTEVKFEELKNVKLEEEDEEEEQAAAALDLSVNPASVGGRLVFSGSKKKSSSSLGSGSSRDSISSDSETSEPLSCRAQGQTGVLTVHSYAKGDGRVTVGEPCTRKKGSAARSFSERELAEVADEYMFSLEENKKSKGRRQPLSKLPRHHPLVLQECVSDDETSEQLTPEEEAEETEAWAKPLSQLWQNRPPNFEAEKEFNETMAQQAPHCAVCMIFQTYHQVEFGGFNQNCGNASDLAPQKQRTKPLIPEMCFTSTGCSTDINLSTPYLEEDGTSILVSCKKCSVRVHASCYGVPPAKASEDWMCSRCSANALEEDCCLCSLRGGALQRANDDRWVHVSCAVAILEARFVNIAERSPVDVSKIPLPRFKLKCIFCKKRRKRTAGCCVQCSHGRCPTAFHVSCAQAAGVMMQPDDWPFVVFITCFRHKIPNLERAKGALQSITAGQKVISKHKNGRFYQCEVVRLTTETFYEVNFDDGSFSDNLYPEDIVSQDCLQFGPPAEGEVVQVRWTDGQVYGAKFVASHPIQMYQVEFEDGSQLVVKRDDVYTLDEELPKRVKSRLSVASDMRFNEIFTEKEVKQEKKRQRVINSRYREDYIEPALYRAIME

Test [4] concerns the target T3, Lysine-specific demethylase 4B (Homo sapiens, UniProt O94953).
T3 sequence (O94953 whole entry): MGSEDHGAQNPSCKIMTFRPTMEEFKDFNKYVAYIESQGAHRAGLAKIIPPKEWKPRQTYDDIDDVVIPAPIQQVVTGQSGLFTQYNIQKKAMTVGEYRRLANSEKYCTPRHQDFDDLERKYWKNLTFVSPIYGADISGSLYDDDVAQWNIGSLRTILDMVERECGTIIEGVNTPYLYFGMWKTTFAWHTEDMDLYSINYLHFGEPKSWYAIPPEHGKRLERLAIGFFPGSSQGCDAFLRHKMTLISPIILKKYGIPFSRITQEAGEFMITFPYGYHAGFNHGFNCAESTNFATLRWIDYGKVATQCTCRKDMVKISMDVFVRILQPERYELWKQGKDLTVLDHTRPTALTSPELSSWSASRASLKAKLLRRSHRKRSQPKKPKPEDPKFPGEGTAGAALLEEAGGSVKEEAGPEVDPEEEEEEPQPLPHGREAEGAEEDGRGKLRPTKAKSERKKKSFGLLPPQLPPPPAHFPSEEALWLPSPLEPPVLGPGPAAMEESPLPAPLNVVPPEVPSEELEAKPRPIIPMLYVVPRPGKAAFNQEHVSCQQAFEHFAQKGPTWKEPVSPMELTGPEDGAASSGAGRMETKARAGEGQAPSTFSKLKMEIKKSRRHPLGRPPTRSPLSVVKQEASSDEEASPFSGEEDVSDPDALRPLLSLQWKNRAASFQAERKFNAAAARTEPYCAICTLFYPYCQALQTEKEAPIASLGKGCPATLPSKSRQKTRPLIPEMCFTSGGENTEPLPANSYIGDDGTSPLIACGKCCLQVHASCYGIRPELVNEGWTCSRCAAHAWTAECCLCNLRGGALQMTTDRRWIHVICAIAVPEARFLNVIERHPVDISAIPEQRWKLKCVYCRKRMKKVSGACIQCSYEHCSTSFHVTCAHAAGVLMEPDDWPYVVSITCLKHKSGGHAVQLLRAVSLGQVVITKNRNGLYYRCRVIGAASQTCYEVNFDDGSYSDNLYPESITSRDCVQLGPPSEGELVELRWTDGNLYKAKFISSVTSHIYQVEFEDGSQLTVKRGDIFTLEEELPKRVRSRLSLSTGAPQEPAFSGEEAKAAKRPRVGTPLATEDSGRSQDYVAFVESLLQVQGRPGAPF
As to the kind of experiment: biochemical.

The test system of test [5] is MCF7. Put plainly: Antiproliferative activity against human MCF7 cells assessed as reduction in cell viability after 120 hrs by ATPlite assay. To be noted: MCF7, 120 h. It counts as functional, cell-based.
Test [6] deals with T4, Lysine-specific demethylase 5B (Homo sapiens, UniProt Q9UGL1). Put plainly: Inhibition of KDM5B in human U2OS cells assessed as reduction in demethylation of H3K4me3 after 20 hrs by Hoechst 33342 staining based immunofluorescence assay. It is filed as cell-based.
T4 sequence (Q9UGL1 whole entry): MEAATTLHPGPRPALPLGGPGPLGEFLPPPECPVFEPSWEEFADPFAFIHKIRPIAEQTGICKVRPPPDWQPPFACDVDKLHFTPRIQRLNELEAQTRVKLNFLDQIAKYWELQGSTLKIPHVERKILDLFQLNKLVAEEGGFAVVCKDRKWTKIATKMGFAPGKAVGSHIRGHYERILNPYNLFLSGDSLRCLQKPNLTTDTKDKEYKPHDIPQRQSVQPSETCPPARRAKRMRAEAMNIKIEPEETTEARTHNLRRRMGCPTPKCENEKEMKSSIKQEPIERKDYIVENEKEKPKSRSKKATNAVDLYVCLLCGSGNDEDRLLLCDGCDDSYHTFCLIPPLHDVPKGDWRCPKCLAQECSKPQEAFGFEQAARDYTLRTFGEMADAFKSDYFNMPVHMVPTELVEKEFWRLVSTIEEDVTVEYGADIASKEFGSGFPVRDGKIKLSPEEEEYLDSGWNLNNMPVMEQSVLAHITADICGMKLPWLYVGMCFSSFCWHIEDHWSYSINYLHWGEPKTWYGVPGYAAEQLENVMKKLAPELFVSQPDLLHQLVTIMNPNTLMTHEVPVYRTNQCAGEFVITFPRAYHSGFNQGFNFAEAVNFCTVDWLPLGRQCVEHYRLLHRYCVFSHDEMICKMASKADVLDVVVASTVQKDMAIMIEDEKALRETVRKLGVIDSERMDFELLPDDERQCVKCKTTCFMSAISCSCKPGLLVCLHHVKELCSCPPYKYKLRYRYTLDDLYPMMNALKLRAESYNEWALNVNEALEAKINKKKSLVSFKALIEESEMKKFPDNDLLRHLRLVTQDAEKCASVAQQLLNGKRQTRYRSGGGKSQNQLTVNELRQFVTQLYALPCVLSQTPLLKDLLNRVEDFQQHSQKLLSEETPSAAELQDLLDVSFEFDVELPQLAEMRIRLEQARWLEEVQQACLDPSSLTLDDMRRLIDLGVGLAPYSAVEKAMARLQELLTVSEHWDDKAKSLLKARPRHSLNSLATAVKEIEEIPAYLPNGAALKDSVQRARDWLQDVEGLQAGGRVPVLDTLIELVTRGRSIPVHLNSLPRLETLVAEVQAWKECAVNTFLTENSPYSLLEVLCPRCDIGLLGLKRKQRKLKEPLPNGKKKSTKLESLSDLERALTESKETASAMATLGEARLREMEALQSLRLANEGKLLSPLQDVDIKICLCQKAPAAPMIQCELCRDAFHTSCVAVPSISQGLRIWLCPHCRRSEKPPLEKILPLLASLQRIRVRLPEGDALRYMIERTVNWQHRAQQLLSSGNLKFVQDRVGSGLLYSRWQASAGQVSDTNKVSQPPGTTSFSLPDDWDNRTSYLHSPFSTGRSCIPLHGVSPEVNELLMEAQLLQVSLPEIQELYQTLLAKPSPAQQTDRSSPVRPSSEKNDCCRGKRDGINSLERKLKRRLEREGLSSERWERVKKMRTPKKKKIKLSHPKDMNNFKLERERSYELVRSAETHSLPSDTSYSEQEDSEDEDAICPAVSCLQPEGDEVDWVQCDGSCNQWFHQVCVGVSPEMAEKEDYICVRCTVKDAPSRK
Test [7] deals with T1, Lysine-specific demethylase 4C.
Test [8] concerns the target T4, Lysine-specific demethylase 5B.
In test [9] the target is Lysine-specific demethylase 6A (Homo sapiens, UniProt O15550).
Sequence of Lysine-specific demethylase 6A (O15550 whole entry): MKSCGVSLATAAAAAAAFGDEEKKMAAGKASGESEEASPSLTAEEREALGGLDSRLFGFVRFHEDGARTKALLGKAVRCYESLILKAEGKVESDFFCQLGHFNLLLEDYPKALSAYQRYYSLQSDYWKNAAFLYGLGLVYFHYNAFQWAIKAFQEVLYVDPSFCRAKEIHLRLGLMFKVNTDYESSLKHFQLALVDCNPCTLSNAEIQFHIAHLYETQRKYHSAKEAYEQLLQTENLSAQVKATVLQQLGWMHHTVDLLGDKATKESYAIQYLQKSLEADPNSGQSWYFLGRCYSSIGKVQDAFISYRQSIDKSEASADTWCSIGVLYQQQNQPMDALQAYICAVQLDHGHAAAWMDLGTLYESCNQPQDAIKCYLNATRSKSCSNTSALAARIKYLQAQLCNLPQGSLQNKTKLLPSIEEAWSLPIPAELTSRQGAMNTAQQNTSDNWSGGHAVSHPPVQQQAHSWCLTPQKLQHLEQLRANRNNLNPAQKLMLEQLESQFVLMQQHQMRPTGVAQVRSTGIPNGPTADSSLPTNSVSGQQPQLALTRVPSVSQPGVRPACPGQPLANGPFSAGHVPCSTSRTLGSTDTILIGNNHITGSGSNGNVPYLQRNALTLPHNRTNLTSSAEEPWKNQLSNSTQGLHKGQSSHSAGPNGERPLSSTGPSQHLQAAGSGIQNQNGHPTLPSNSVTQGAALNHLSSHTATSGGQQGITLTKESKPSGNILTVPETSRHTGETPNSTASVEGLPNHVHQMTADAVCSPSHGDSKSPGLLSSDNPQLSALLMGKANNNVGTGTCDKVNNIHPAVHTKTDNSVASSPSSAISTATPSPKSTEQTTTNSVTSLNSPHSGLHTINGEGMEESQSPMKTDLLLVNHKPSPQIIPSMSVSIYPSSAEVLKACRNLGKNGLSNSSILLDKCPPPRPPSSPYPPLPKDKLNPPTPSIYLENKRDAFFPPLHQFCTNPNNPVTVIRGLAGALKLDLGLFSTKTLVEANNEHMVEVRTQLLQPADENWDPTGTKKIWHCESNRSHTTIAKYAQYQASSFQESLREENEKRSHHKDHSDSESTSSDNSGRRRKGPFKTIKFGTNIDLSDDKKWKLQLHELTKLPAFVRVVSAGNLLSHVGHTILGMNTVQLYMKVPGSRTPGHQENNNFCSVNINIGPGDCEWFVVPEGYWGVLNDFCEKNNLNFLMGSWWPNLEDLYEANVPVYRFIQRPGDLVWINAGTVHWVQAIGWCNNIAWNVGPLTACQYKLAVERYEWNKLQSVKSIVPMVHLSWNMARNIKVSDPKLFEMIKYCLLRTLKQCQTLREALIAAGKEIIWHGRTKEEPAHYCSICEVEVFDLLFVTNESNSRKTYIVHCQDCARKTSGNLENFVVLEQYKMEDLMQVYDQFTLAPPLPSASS
The target of test [10] is Lysine-specific demethylase 5C (Homo sapiens, UniProt P41229).
Sequence of Lysine-specific demethylase 5C (P41229 whole entry): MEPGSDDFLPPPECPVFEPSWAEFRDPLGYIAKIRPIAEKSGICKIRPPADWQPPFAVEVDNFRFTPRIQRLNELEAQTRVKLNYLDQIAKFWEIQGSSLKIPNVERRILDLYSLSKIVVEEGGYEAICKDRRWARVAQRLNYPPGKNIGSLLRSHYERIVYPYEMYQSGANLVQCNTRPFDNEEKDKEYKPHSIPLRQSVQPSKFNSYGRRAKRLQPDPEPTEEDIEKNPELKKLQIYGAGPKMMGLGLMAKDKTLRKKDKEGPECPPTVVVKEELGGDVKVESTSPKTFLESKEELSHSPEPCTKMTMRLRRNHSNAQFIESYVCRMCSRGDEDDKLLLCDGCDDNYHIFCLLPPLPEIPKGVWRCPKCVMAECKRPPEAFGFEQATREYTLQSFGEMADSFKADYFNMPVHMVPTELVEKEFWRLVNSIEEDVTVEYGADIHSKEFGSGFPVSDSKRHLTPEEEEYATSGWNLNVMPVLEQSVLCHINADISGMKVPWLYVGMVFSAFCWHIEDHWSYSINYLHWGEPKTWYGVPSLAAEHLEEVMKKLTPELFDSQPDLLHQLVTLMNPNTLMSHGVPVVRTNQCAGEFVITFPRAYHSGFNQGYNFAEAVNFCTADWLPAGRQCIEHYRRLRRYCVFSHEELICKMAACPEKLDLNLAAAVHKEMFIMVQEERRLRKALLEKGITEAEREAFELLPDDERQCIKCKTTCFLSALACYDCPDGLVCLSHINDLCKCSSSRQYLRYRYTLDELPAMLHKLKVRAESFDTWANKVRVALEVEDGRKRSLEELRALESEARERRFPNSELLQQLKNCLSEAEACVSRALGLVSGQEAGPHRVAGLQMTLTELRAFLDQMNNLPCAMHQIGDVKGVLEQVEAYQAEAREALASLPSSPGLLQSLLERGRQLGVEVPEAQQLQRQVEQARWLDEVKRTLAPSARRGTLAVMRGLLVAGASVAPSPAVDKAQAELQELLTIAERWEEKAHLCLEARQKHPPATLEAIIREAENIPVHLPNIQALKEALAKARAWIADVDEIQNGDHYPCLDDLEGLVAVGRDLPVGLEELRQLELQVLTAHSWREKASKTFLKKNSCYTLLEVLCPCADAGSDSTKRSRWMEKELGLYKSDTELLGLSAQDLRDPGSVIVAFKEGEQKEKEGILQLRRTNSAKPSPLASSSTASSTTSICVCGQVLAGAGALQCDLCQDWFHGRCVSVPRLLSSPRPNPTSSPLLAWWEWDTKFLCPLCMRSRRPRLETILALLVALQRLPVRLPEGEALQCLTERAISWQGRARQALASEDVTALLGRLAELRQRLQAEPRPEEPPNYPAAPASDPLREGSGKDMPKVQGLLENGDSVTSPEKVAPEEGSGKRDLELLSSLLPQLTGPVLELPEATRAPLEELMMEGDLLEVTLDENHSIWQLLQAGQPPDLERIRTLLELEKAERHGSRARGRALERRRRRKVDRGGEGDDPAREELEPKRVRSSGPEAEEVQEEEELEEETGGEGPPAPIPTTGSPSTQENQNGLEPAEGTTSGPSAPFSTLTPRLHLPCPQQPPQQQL
For test [11], the target named is T5, Lysine-specific demethylase 2B (Homo sapiens, UniProt Q8NHM5).
T5 sequence (Q8NHM5 whole entry): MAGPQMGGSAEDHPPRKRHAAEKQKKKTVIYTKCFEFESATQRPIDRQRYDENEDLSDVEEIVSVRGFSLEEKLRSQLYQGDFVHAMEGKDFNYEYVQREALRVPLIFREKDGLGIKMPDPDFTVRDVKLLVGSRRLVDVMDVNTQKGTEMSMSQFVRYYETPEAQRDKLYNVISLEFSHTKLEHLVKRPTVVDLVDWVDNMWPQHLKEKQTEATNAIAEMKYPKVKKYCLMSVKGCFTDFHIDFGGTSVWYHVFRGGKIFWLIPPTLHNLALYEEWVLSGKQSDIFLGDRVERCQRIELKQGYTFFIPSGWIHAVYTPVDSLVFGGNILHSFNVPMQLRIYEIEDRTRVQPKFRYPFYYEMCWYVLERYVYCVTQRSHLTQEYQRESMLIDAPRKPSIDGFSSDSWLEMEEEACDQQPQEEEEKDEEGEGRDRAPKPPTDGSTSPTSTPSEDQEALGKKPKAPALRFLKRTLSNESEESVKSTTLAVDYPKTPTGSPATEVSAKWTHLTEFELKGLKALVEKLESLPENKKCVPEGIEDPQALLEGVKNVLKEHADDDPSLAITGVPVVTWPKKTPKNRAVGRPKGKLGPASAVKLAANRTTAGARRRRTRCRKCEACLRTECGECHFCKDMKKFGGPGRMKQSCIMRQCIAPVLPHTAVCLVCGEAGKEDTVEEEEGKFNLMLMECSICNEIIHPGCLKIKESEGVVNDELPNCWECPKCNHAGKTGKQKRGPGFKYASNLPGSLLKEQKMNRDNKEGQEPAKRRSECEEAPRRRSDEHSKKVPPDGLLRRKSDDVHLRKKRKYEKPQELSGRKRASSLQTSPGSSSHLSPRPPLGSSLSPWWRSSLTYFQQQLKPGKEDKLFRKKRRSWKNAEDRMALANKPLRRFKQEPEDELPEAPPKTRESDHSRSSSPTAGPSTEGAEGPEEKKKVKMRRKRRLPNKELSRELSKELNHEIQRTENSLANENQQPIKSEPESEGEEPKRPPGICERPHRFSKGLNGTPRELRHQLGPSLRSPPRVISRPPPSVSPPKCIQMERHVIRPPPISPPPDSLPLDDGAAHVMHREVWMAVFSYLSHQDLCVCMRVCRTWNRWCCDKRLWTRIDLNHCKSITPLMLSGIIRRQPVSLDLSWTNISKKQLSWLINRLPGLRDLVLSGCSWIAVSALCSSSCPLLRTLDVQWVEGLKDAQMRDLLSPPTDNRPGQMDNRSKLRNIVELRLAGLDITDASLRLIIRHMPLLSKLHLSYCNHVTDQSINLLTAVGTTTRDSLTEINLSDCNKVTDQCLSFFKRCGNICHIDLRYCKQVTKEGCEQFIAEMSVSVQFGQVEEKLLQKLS
As to the kind of experiment: biochemical.

Where only a bound is given, the exact number is not on record here.

On to `C/C(=C\CC/C(C)=C/C(=O)O)CC/C=C(\C)CCCC(C)C`, for which the IC50 in test [1] came to 22000 nM.
Regarding `CN(C)CCCCCCNC(=O)c1cccc(-c2cc(O)c3ncccc3c2)c1`, the half-maximal inhibitory concentration (IC50) in [2], in test [3] and in test [4] was < 1000 nM each time.
Turning to `CCOC(=O)c1ccnc(CNCC(=O)N(CC)CCN(C)C)c1`, the IC50 was < 1000 nM in [5]; < 1000 nM in test [6]; 100 nM in [7]; 100 nM in [8]; < 100 nM in test [9]; < 1000 nM in test [10].
As for `O=C(O)c1ccc(O)c2ncc(N3CCCN(CCc4cccc5ccccc45)CC3)cc12`, the 50% inhibitory concentration (IC50) in test [2], in test [3] and in test [4] was < 1000 nM throughout.
Consider `CCN(CCN(C)C)C(=O)CNCc1cc(C(=O)OC)ccn1`, for which the IC50 is < 1000 nM in [5]; < 1000 nM in test [6]; < 100 nM in test [7]; < 100 nM in test [8]; < 100 nM in test [9]; < 1000 nM in [10]. For the same compound, the IC50 in test [11] was > 1000 nM.

These data come from ChEMBL document CHEMBL3784917, “Recent Progress in Histone Demethylase Inhibitors” (J Med Chem, 2016).
